The text below walks through data of paper PMC3968170 (PLoS Pathogens, 2014).

One assay deals with T1, HitS ICD (Bacillus anthracis, UniProt Q81RT2).
T1 construct: gene GBAA_1956
Particulars: 5 uM kinase, 37 C, 30 min; labelled compound.

Another assay addresses T2, HssS ICD (Bacillus anthracis, UniProt A0AAC8N8V0).
T2 construct: gene BA_3260
Particulars: 5 uM kinase, 37 C, 30 min; labelled compound.

T2 sequence (A0AAC8N8V0 189-458 limits assumed): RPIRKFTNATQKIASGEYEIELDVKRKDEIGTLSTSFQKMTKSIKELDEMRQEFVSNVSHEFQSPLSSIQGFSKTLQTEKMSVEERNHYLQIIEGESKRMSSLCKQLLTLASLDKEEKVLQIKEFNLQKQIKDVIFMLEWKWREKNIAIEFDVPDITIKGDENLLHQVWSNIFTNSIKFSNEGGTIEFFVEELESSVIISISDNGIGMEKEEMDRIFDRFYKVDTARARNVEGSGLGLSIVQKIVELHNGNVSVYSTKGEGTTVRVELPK
T1 sequence (Q81RT2 74-351 limits assumed): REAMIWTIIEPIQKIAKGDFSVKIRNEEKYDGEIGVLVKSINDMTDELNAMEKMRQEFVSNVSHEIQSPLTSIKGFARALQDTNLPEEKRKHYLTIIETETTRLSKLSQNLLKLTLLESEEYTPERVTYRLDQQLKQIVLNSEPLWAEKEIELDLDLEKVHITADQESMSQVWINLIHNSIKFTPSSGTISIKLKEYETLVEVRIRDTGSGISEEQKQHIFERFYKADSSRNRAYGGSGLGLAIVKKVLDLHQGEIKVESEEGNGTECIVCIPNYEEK

With `Nc1ncnc2c1ncn2[C@@H]1O[C@H](COP(=O)(O)OP(=O)(O)OP(=O)(O)O)[C@@H](O)[C@H]1O` [ATP], the “autophosphorylation, SDS-PAGE and phosphorimager” value on HitS ICD and at HssS ICD was “Both HKs autophosphorylate in the presence of ATP” throughout.
